From the OPERA property sets (Mansouri et al. 2018) come the findings set out here.

For orientation: logP means a log measure of how a compound divides between an organic and an aqueous phase. Low values mean lower lipophilicity, high ones higher lipophilicity.

On to `COc1ccccc1OCCNCC(O)COc1cccc2[nH]c3ccccc3c12` (stereo not given), for which the logP was determined as 4.19.
`CCCCNc1ccc(C(=O)OCCN(C)C)cc1` showed a lipophilicity (logP) of 3.51.
The value for `N#CC(C#N)Cc1ccc(O)cc1` was 3.08; that for `CCCc1c2c(c(O)c3c(=O)cc(C(=O)O)oc13)CCCC2` was 5.
The value for `COc1ccc(Cc2nccc3cc(OC)c(OC)cc23)cc1OC` was 2.95; that for `CCc1cc(CC(C#N)C#N)cc(CC)c1O` was 4.12; that for `CN1C(C(=O)Nc2ccccn2)=C(O)c2ccccc2S1(=O)=O` was 3.06.
Regarding `O=C1O[C@H]([C@@H](O)CO)C(O)=C1O`, the lipophilicity (logP) was -1.85.
The value for `CCN(CC)CCOC(=O)c1ccc(N)cc1` was 2.14; that for `CC(C)(C)S(=O)(=O)CC(Cc1ccccc1)C(=O)NC(Cc1cnc[nH]1)C(=O)NC(CC1CCCCC1)C(O)C(O)C1CC1` (stereo not given) was 2.75; that for `CC(C)(C)S(=O)(=O)CC(Cc1cccc2ccccc12)C(=O)NC(Cc1cnc[nH]1)C(=O)NC(CC1CCCCC1)C(O)C(O)C1CC1` (stereo not given) was 3.15.
As for `COS(=O)c1ccc(O)cc1` (stereo not given), the logP came to 0.58.
To `CCCCCCCCCNCc1ccc(C)cc1` belongs 5.7; to `Cc1cnc(NC(=O)C2=C(O)c3ccccc3S(=O)(=O)N2C)s1`, 3.43; to `N[C@@H](Cc1ccccc1)C(=O)O` (racemic), -1.38.
